Columns and labels:
[1] = tested on: Mus musculus; test: Toxicity in ip dosed BDF1 mouse; format: organism-based; conditions: in vivo
[2] = tested on: L1210; test: Antitumor activity against mouse L1210 cells allografted in ip dosed BDF1 mouse assessed as increase of life span of host measured up to 45 days; format: functional; conditions: 1080 h
[3] = Therapeutic index, ratio of LD10 for BDF1 mouse to ED50 for mouse L1210 cells allografted in ip dosed BDF1 mouse; format: organism-based; conditions: in vivo, read-out: TI
[4] = Octanol-water partition coefficient, log P of the compound; format: physicochemical
[5] = Octanol-water partition coefficient, log P of the compound at pH 7.4; format: physicochemical

CO[C@H]1CC[C@H](NC(=O)N(CCCl)N=O)CC1
LD10 [1]: 44 mg/kg
ED50 [2]: 23 mg/kg
selectivity ratio [3]: 0.52
logP ([4]; read-out: logP): 2.4

C[C@H]1CC[C@H](NC(=O)N(CCF)N=O)CC1
LD10 [1]: 44 mg/kg
ED50 [2]: 25 mg/kg
selectivity ratio [3]: 0.57
logP ([4]; read-out: logP): 2.7

CC(=O)OC[C@H]1CC[C@H](NC(=O)N(CCF)N=O)CC1
LD10 [1]: 57 mg/kg
ED50 [2]: 45 mg/kg
selectivity ratio [3]: 0.79
logP ([4]; read-out: logP): 2.5

COC(=O)[C@H]1CC[C@@H](NC(=O)N(CCCl)N=O)CC1
LD10 [1]: 54 mg/kg
ED50 [2]: 15 mg/kg
selectivity ratio [3]: 0.28
logP ([4]; read-out: logP): 2.6

O=NN(CCCl)C(=O)N[C@H]1CC[C@H](CC(=O)O)CC1
LD10 [1]: 40 mg/kg
ED50 [2]: 12 mg/kg
selectivity ratio [3]: 0.3
logD [5]: -0.6

C[C@H]1CC[C@H](NC(=O)N(CCCl)N=O)CC1
LD10 [1]: 42 mg/kg
ED50 [2]: 18 mg/kg
selectivity ratio [3]: 0.43
logP ([4]; read-out: logP): 3.3

O=NN(CCCl)C(=O)NCCCl [CARMUSTINE]
LD10 [1]: 41 mg/kg
ED50 [2]: 20 mg/kg
selectivity ratio [3]: 0.49
logP ([4]; read-out: logP): 1.5

O=NN(CCCl)C(=O)N[C@H]1CC[C@@H](C(=O)O)CC1
LD10 [1]: 26 mg/kg
ED50 [2]: 16 mg/kg
selectivity ratio [3]: 0.62
logD [5]: -1.1

O=NN(CCCl)C(=O)N[C@H]1CC[C@@H](CC(=O)O)CC1
LD10 [1]: 51 mg/kg
ED50 [2]: 27 mg/kg
selectivity ratio [3]: 0.53
logD [5]: -0.6

O=NN(CCCl)C(=O)N[C@H]1CCCC[C@H]1Cl (relative stereo)
LD10 [1]: 96 mg/kg
ED50 [2]: 54 mg/kg
selectivity ratio [3]: 0.56
logP ([4]; read-out: logP): 2.7

O=NN(CCCl)C(=O)N[C@H]1CC[C@H](O)CC1
LD10 [1]: 42 mg/kg
ED50 [2]: 14 mg/kg
selectivity ratio [3]: 0.4
logP ([4]; read-out: logP): 1

O=NN(CCCl)C(=O)N[C@H]1CC[C@@H](O)CC1
LD10 [1]: 46 mg/kg
ED50 [2]: 22 mg/kg
selectivity ratio [3]: 0.48
logP ([4]; read-out: logP): 1.1

CO[C@H]1CC[C@@H](NC(=O)N(CCCl)N=O)CC1
LD10 [1]: 38 mg/kg
ED50 [2]: 20 mg/kg
selectivity ratio [3]: 0.53
logP ([4]; read-out: logP): 2.4

CCOC(=O)[C@H]1CC[C@H](NC(=O)N(CCCl)N=O)CC1
LD10 [1]: 33 mg/kg
ED50 [2]: 17 mg/kg
selectivity ratio [3]: 0.52
logP ([4]; read-out: logP): 3.1

CC(=O)O[C@H]1CC[C@H](NC(=O)N(CCF)N=O)CC1
LD10 [1]: 36 mg/kg
ED50 [2]: 18 mg/kg
selectivity ratio [3]: 0.5
logP ([4]; read-out: logP): 2

C[C@H]1S(=O)(=O)C[C@@H](NC(=O)N(CCCl)N=O)CS1(=O)=O
LD10 [1]: 36 mg/kg
ED50 [2]: 18 mg/kg
selectivity ratio [3]: 0.5
logP ([4]; read-out: logP): -0.4

CCOC(=O)[C@@H]1CCC[C@H](NC(=O)N(CCCl)N=O)C1 (relative stereo)
LD10 [1]: 50 mg/kg
ED50 [2]: 28 mg/kg
selectivity ratio [3]: 0.56
logP ([4]; read-out: logP): 3.1

O=NN(CCCl)C(=O)NC(C(=O)O)C1CCCCC1 (stereo not given)
LD10 [1]: 73 mg/kg
ED50 [2]: 50 mg/kg
selectivity ratio [3]: 0.63
logD [5]: 0

C[C@@H]1CCC[C@H](NC(=O)N(CCCl)N=O)C1 (relative stereo)
LD10 [1]: 120 mg/kg
ED50 [2]: 45 mg/kg
selectivity ratio [3]: 0.38
logP ([4]; read-out: logP): 3.3

O=COC[C@H]1CC[C@H](NC(=O)N(CCCl)N=O)CC1
LD10 [1]: 22 mg/kg
ED50 [2]: 10 mg/kg
selectivity ratio [3]: 0.45
logP ([4]; read-out: logP): 2.6

O=NN(CCCl)C(=O)N[C@H]1CC[C@H](NC(=O)N(CCCl)N=O)CC1
LD10 [1]: 270 mg/kg
ED50 [2]: 71 mg/kg
selectivity ratio [3]: 0.26
logP ([4]; read-out: logP): 2.7

CC(=O)OC[C@H]1CC[C@H](NC(=O)N(CCCl)N=O)CC1
LD10 [1]: 28 mg/kg
ED50 [2]: 14 mg/kg
selectivity ratio [3]: 0.5
logP ([4]; read-out: logP): 3.1

COC(=O)[C@H]1CC[C@H](NC(=O)N(CCCl)N=O)CC1
LD10 [1]: 26 mg/kg
ED50 [2]: 14 mg/kg
selectivity ratio [3]: 0.54
logP ([4]; read-out: logP): 2.6

CCCCCC(C)NC(=O)N(CCCl)N=O (stereo not given)
LD10 [1]: 57 mg/kg
ED50 [2]: 27 mg/kg
logP ([4]; read-out: logP): 3.8

O=NN(CCF)C(=O)N[C@H]1CC[C@@H](C(=O)O)CC1
LD10 [1]: 29 mg/kg
ED50 [2]: 30 mg/kg
logD [5]: -1.7

C[C@H]1CCC[C@H](NC(=O)N(CCCl)N=O)C1 (relative stereo)
LD10 [1]: 110 mg/kg
ED50 [2]: 53 mg/kg
selectivity ratio [3]: 0.48
logP [4]: 3.3

O=NN(CCCl)C(=O)N[C@H]1CC[C@@H](NC(=O)N(CCCl)N=O)CC1
LD10 [1]: 84 mg/kg
ED50 [2]: 40 mg/kg
selectivity ratio [3]: 0.48
logP ([4]; read-out: logP): 2.7

O=NN(CCCl)C(=O)N[C@H]1CCC[C@@H](C(=O)O)C1 (relative stereo)
LD10 [1]: 34 mg/kg
ED50 [2]: 21 mg/kg
selectivity ratio [3]: 0.62
logD [5]: -1.1

C[C@H]1S(=O)(=O)C[C@H](NC(=O)N(CCCl)N=O)CS1(=O)=O
LD10 [1]: 51 mg/kg
ED50 [2]: 19 mg/kg
selectivity ratio [3]: 0.37
logP ([4]; read-out: logP): -0.4

O=NN(CCCl)C(=O)N[C@H]1CC[C@H](C[C@H]2CC[C@H](NC(=O)N(CCCl)N=O)CC2)CC1
LD10 [1]: 250 mg/kg
ED50 [2]: 96 mg/kg
selectivity ratio [3]: 0.38
logP ([4]; read-out: logP): 3.1

CC(=O)O[C@H]1CC[C@H](NC(=O)N(CCCl)N=O)CC1
LD10 [1]: 45 mg/kg
ED50 [2]: 18 mg/kg
selectivity ratio [3]: 0.4
logP ([4]; read-out: logP): 2.6

O=NN(CCCl)C(=O)N[C@H]1CC[C@H](CCl)CC1
LD10 [1]: 62 mg/kg
ED50 [2]: 43 mg/kg
selectivity ratio [3]: 0.69
logP ([4]; read-out: logP): 3.7

C[C@H]1SC[C@@H](NC(=O)N(CCCl)N=O)CS1
LD10 [1]: 31 mg/kg
ED50 [2]: 16 mg/kg
selectivity ratio [3]: 0.53
logP ([4]; read-out: logP): 2.6

O=NN(CCCl)C(=O)NC1CCCCC1 [LOMUSTINE]
LD10 [1]: 48 mg/kg
ED50 [2]: 37 mg/kg
selectivity ratio [3]: 0.77
logP ([4]; read-out: logP): 2.8

O=NN(CCCl)C(=O)N[C@H]1CC[C@H](C(=O)O)CC1
LD10 [1]: 30 mg/kg
ED50 [2]: 17 mg/kg
selectivity ratio [3]: 0.57
logD [5]: -1.1

O=NN(CCCl)C(=O)N[C@H]1CCCC[C@@H]1Cl (relative stereo)
LD10 [1]: 57 mg/kg
ED50 [2]: 36 mg/kg
selectivity ratio [3]: 0.63
logP ([4]; read-out: logP): 2.7

O=NN(CCF)C(=O)N[C@H]1CC[C@H](C(=O)O)CC1
LD10 [1]: 56 mg/kg
ED50 [2]: 30 mg/kg
logD [5]: -1.7
